Assays:
[1] = Dissolution profile, USP Apparatus 2 (Paddles), conditions of Table 1; type: physicochemical; details: sample containing 20 mg tadalafil, 1000 mL aqueous 0.15 wt % sodium lauryl sulfate and 6 g/L NaH2PO4, pH about 4.5, 37° C., 50 RPM, FIG. 2
Protocol: Dissolution profiles described herein were determined in a dissolution vessel using a USP Apparatus 2 (Paddles) under the conditions described in Table 1. Samples were analyzed on-line by a UV detector.
A sample of the dry powder P-00464, containing 20 mg tadalafil was collected and its dissolution profile determined according to the conditions in Table 1. The dissolution profile of P00464 was compared with the dissolution profiles of commercial versions of tadalafil tablets (Clalis® 20 mg) and active drug substance with a particle size distribution (PSD) such that the value of d(0.9)=˜(about) 50 μm. The results of dissolution testing are illustrated in FIG. 1.
Samples of P-00464 from Example 1 and samples of tadalafil active material with PSD of d(0.9)=˜(about) 4 μm (designated TAPI AK-2186) were prepared for dissolution testing as described below. The dissolution profiles of the samples were determined according to the conditions in Table 1. The samples were analyzed on-line by UV detection, and were compared. FIG. 2 illustrates the averages of the samples for each drug. […]

[2] = cited from earlier work
[3] = organic solvents such as methanol, ethanol, and acetone; 'is understood to be'; cited from earlier work

| SMILES | tadalafil dissolved within 40 minutes [1] | water solubility ([2]; 25° C., reported by U.S. Pat. No. 6,841,167) | solubility in water ([2]; 'is understood to be') | solubility in some organic solvents [3] |
| --- | --- | --- | --- | --- |
| CN1CC(=O)N2[C@H](c3ccc4c(c3)OCO4)c3[nH]c4ccccc4c3C[C@@H]2C1=O | less than 70 wt % | – | – | – |
| CN1CC(=O)N2[C@H](c3ccc4c(c3)OCO4)c3[nH]c4ccccc4c3C[C@@H]2C1=O [tadalafil, (6R-trans)-6-(1,3-benzodioxol-5-yl)-2,3,6,7,12,12a-hexahydro-2-methyl-pyrazino[1′,2′:1,6]pyrido[3,4-]indole-1,4-dione] | – | about 2 μg per milliliter | practically insoluble | only very slightly soluble |

Reference: patent publication US20100099687A1, “TADALAFIL SOLID COMPOSITES” (Teva Pharmaceutical Industries Ltd., priority 2006, published 2010)
